Results from article PMC3740522, “Synthesis of the calcilytic ligand NPS 2143” (Beilstein Journal of Organic Chemistry, 2013).

Biological target: T1, calcium-sensing receptor (CaSR) (Rattus norvegicus, UniProt P48442)
T1 sequence (P48442 20-1079): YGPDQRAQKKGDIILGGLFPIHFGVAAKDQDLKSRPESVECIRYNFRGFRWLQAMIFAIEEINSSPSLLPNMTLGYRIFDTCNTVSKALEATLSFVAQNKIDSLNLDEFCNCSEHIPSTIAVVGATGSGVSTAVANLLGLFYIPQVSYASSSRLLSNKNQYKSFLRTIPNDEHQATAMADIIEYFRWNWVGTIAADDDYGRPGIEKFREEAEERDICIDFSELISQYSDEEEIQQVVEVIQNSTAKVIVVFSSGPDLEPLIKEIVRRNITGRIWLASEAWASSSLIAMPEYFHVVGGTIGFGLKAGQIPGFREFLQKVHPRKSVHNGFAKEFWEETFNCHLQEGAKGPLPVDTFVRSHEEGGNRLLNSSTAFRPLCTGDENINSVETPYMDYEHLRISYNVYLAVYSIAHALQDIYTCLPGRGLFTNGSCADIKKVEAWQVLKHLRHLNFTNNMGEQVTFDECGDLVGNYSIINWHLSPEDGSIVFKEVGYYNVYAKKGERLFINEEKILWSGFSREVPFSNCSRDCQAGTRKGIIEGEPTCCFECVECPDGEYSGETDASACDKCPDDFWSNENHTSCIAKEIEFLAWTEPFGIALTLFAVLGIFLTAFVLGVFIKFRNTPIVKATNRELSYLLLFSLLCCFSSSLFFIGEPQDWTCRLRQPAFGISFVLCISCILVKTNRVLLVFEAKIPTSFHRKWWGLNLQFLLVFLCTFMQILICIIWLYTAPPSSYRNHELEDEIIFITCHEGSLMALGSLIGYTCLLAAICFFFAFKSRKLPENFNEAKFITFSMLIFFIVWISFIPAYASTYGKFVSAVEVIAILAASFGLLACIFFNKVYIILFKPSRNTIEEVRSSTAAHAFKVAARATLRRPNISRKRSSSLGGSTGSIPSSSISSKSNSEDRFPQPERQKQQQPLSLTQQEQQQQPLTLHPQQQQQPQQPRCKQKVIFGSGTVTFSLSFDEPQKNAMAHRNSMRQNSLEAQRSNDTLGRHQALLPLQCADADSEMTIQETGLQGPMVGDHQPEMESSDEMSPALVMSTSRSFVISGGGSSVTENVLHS
Test: inhibition of calcium-stimulated IP1 accumulation in HEK293 cells stably transfected with rat CaSR
Assay type: cell-based

CC(C)(Cc1ccc2ccccc2c1)NC[C@@H](O)COc1cccc(Cl)c1C#N [(R)-3, NPS 2143]
IC50: 640 nM
